# Experimental data taken from US20260138959A1, “QUINAZOLINE DERIVATIVE COMPOUND AND USE THEREOF” (VORONOI INC., priority 2021, published 2026).
# Tests used:
# Ba/F3-c-KIT(D816V) = experiment: Proliferation inhibitory activity on Ba/F3 cell (CellTiter-Glo, 72 hours), c-KIT(D816V); assay type: cell-based; details: Mus musculus, BaF3, read-out: Ba/F3 (nM) c-KIT (D816V) (GI50 class)
# Protocol: (§1) Ba/F3-TEL-PDGFRα(WT), Ba/F3-TEL-PDGFβ(WT), Ba/F3-c-KIT(D816V) (Kyinno, #KC-0138), c-KIT V560G/D816V, c-KIT D814Y were seeded at 3×10^3/100 μl/well in a clear bottom white 96-well plate. A culture solution containing compounds of 12 concentrations (0.00001-2 mM) serially diluted in 3 folds and the DMSO control group was added at 0.5 μl/well each to a final concentration of 0.00005-10 μM, and then incubated in a CO2 incubator at 37° C. for 72 hours. After 72 hours, the plate treated with the compound was taken out, CellTiter-Glo® Assay (Promega) solution was treated with 100 μl/well, followed by mixing well. After mixing well for about 10 minutes at room temperature, […] was measured using a microplate reader. The data were presented as percentages in proportion to treated cells based on the vehicle, GI50 (nM) values were calculated using GraphPad Prism 8.3.0 (GraphPad software Inc., San Diego).
# (§2) The inhibitory activities of Ba/F3 expressing PDGFR-α, PDGFR-β, c-KIT(D816V), c-KIT V560G/D816V, and c-KIT D814Y measured as described above were measured and shown in Table 7 below (A: GI50≤200 nM; B: 200 nM<GI50≤500 nM; C: GI50>500 nM).
# c-KIT V560G/D816V = experiment: Proliferation inhibitory activity on Ba/F3 cell (CellTiter-Glo, 72 hours), c-KIT V560G/D816V; assay type: cell-based; details: Mus musculus, BaF3, c-KIT V560G/D816V cells, read-out: Cell (nM) c-KIT V560G/D816V (GI50 class)
# Protocol: as §1, §2
Structure (SMILES),GI50 (Ba/F3-c-KIT(D816V)) [nM],GI50 (c-KIT V560G/D816V) [nM]
"COc1cc2c(-c3ccc(NC(=O)Cc4ccc(C(F)(F)F)cc4)cc3)ncnc2cc1OCCCCl [Example 23, N-(4-(7-(3-chloropropoxy)-6-methoxyquinazolin-4-yl)phenyl)-2-(4-(trifluoromethyl)phenyl)acetamide]",≤ 200,200 to 500
"COc1cc2c(-c3ccc(NC(=O)Cc4ccc(C(F)(F)F)cc4)cc3)ncnc2cc1OC1CNC1 [Example 24, N-(4-(7-(azetidine-3-yloxy)-6-methoxyquinazolin-4-yl)phenyl)-2-(4-(trifluoromethyl)phenyl)acetamide]",≤ 200,> 500
"COc1cc2c(-c3ccc(NC(=O)Cc4ccc(C(F)(F)F)cc4)cc3)ncnc2cc1OCCCNC1CC1 [Example 25, N-(4-(7-(3-(cyclopropylamino)propoxy)-6-methoxyquinazolin-4-yl)phenyl)-2-(4-(trifluoromethyl)phenyl)acetamide]",≤ 200,≤ 200
"COc1ccc(CN2CC(Oc3cc4ncnc(-c5ccc(NC(=O)Cc6ccc(C(F)(F)F)cc6)cc5)c4cc3OC)C2)cc1 [Example 27, N-(4-(6-methoxy-7-((1-(4-methoxybenzyl)azetidin-3-yl)oxy)quinazolin-4-yl)phenyl)-2-(4-(trifluoromethyl)phenyl)acetamide]",≤ 200,> 500
"COCCN1CC(Oc2cc3ncnc(-c4ccc(NC(=O)Cc5ccc(C(F)(F)F)cc5)cc4)c3cc2OC)C1 [Example 28, N-(4-(6-methoxy-7-((1-(2-methoxyethyl)azetidin-3-yl)oxy)quinazolin-4-yl)phenyl)-2-(4-(trifluoromethyl)phenyl)acetamide]",≤ 200,> 500
"COc1cc2ncnc(-c3ccc(NC(=O)Cc4ccc(C(F)(F)F)cc4)cc3)c2cc1OC1CN(C(=O)OC(C)(C)C)C1 [Example 135, tert-butyl 3-((7-methoxy-4-(4-(2-(4-(trifluoromethyl)phenyl)acetamido)phenyl)quinazolin-6-yl)oxy)azetidin-1-carboxylate]",200 to 500,
"COc1cc2ncnc(-c3ccc(NC(=O)Cc4ccc(C(F)(F)F)cc4)cc3)c2cc1OCCCN1CC2(CNC2)C1 [Example 148, N-(4-(6-(3-(2,6-diazaspiro[3.3]heptane-2-yl)propoxy)-7-methoxyquinazolin-4-yl)phenyl)-2-(4-(trifluoromethyl)phenyl)acetamide]",> 500,
"COc1cc2ncnc(-c3ccc(NC(=O)Cc4ccc(C(F)(F)F)cc4)cc3)c2cc1OCCCN1CC(N(C)C)C1 [Example 152, N-(4-(6-(3-(3-(dimethylamino)azetidin-1-yl)propoxy)-7-methoxyquinazolin-4-yl)phenyl)-2-(4-(trifluoromethyl)phenyl)acetamide]",≤ 200,
"COc1cc2ncnc(-c3ccc(NC(=O)Cc4ccc(C(F)(F)F)cc4)cc3)c2cc1OC1COC1 [Example 153, N-(4-(7-methoxy-6-(oxetan-3-yloxy)quinazolin-4-yl)phenyl)-2-(4-(trifluoromethyl)phenyl)acetamide]",≤ 200,
"COc1cc2ncnc(-c3ccc(NC(=O)Cc4ccc(C(F)(F)F)cc4)cc3)c2cc1OCCCNc1cnn(C)c1 [Example 155, N-(4-(7-methoxy-6-(3-((1-methyl-1H-pyrazol-4-yl)amino)propoxy)quinazolin-4-yl)phenyl)-2-(4-(trifluoromethyl)phenyl)acetamide]",≤ 200,

# Further lines, results first:
GI50 (Ba/F3-c-KIT(D816V)) [nM],GI50 (c-KIT V560G/D816V) [nM],Structure (SMILES)
> 500,,"COc1cc2c(-c3ccc(NC(=O)Cn4cc(C(C)C)nn4)cc3)ncnc2cc1OCC1CCNCC1 [Example 61, 2-(4-isopropyl-1H-1,2,3-triazole-1-yl)-N-(4-(6-methoxy-7-(piperidin-4-ylmethoxy)quinazolin-4-yl)phenyl)acetamide]"
> 500,,"COc1cc2c(-c3ccc(NC(=O)Cn4cc(C(C)(C)C)nn4)cc3)ncnc2cc1OCC1CCNCC1 [Example 62, 2-(4-(tert-butyl)-1H-1,2,3-triazole-1-yl)-N-(4-(6-methoxy-7-(piperidin-4-ylmethoxy)quinazolin-4-yl)phenyl)acetamide]"
≤ 200,,"CCN1CCC(COc2cc3ncnc(-c4ccc(NC(=O)Cn5cc(C(C)C)nn5)cc4)c3cc2OC)CC1 [Example 65, N-(4-(7-((1-ethylpiperidin-4-yl)methoxy)-6-methoxyquinazolin-4-yl)phenyl)-2-(4-isopropyl-1H-1,2,3-triazole-1-yl)acetamide]"
≤ 200,,"CCN1CCC(COc2cc3ncnc(-c4ccc(NC(=O)Cn5cc(C(C)(C)C)nn5)cc4)c3cc2OC)CC1 [Example 66, 2-(4-(tert-butyl)-1H-1,2,3-triazole-1-yl)-N-(4-(7-((1-ethylpiperidin-4-yl)methoxy)-6-methoxyquinazolin-4-yl)phenyl)acetamide]"
≤ 200,,"COc1cc2c(-c3ccc(NC(=O)Cn4cc(C(C)C)nn4)cc3)ncnc2cc1OCCCN1CCN(C)CC1 [Example 67, 2-(4-isopropyl-1H-1,2,3-triazole-1-yl)-N-(4-(6-methoxy-7-(3-(4-methylpiperazin-1-yl)propoxy)quinazolin-4-yl)phenyl)acetamide]"
≤ 200,,"COc1cc2c(-c3ccc(NC(=O)Cn4cc(C(C)(C)C)nn4)cc3)ncnc2cc1OCCCN1CCN(C)CC1 [Example 68, 2-(4-(tert-butyl)-1H-1,2,3-triazole-1-yl)-N-(4-(6-methoxy-7-(3-(4-methylpiperazin-1-yl)propoxy)quinazolin-4-yl)phenyl)acetamide]"
≤ 200,,"COc1cc2c(-c3ccc(NC(=O)Cc4ccc(C(F)(F)F)c(F)c4)cc3)ncnc2cc1OCC1CCNCC1 [Example 79, 2-(3-fluoro-4-(trifluoromethyl)phenyl)-N-(4-(6-methoxy-7-(piperidin-4-ylmethoxy)quinazolin-4-yl)phenyl)acetamide]"
> 500,,"COc1cc2c(-c3ccc(NC(=O)CC4CCNCC4)cc3)ncnc2cc1OCCCN1CCN(C)CC1 [Example 86, N-(4-(6-methoxy-7-(3-(4-methylpiperazin-1-yl)propoxy)quinazolin-4-yl)phenyl)-2-(piperidin-4-yl)acetamide]"
≤ 200,,"C=CCC(=O)Nc1ccc(-c2ncnc3cc(OCCCN4CCN(C)CC4)c(OC)cc23)cc1 [Example 87, N-(4-(6-methoxy-7-(3-(4-methylpiperazin-1-yl)propoxy)quinazolin-4-yl)phenyl)but-3-enamide]"
≤ 200,,"COc1cc2ncnc(-c3ccc(NC(=O)Cc4ccc(C(F)(F)F)cc4)cc3)c2cc1OCCCN1CCN(C(C)=O)CC1 [Example 128, N-(4-(6-(3-(4-acetylpiperazin-1-yl)propoxy)-7-methoxyquinazolin-4-yl)phenyl)-2-(4-(trifluoromethyl)phenyl)acetamide]"
≤ 200,,"COc1cc2ncnc(-c3ccc(NC(=O)Cc4ccc(C(F)(F)F)cc4)cc3)c2cc1OC1CCN(C(=O)OC(C)(C)C)C1 (stereo not shown) [Example 136, tert-butyl 3-((7-methoxy-4-(4-(2-(4-(trifluoromethyl)phenyl)acetamido)phenyl)quinazolin-6-yl)oxy)pyrrolidin-1-carboxylate]"
> 500,,"COc1cc2ncnc(-c3ccc(NC(=O)Cc4ccc(C(F)(F)F)cc4)cc3)c2cc1OCC1CCNCC1 [Example 146, N-(4-(7-methoxy-6-(piperidin-4-ylmethoxy)quinazolin-4-yl)phenyl)-2-(4-(trifluoromethyl)phenyl)acetamide]"
≤ 200,,"COc1cc2ncnc(-c3ccc(NC(=O)Cc4ccc(C(F)(F)F)cc4)cc3)c2cc1OCCCNC1CC1 [Example 154, N-(4-(6-(3-(cyclopropylamino)propoxy)-7-methoxyquinazolin-4-yl)phenyl)-2-(4-(trifluoromethyl)phenyl)acetamide]"
